# Results taken from publication PMC11909128, “Identification and inhibition of PIN1-NRF2 protein–protein interactions through computational and biophysical approaches” (Scientific Reports, 2025).
# Like-named read-outs stand apart in the source and are kept apart here. Square brackets hold non-standard residues; d marks the D form. Ends that are not written are not given here. Peptide text beside a SMILES is read from it. * marks the point of attachment. fluorescein = fluorescein label at the N-terminus via an aminohexanoic acid (Ahx) linker; FITC = O=C1OC2(c3ccc(O)cc3Oc3cc(O)ccc32)c2ccc(NC(=S)*)cc21; pS = N[C@@H](COP(=O)(O)O)C(=O)O; Ahx = NCCCCCC(=O)O
# B1: Pintide, fluorescently labelled (peptide)
# peptide: WFY[pS]PFLE
# modifications: also: fluorescently labelled, site not given here
# notes: source: synthetic peptide, bought: China Peptides
# B2: fluorescein-labelled NRF2(209-222) pSer215 phospho-peptide (peptide)
# peptide: {fluorescein-Ahx}-ETTMVP[pS]PEAKLTE-OH
# notes: NRF2 (nuclear factor erythroid 2-related factor 2), residues 209-222, in the Neh7 domain; also called Peptide 1; source: synthetic peptide, bought: China Peptides
# B3: Pintide (competitor, not labelled) (peptide)
# peptide: WFY[pS]PFLE
# notes: also called WW domain-selective Pintide; source: synthetic peptide, bought: China Peptides
# B4: fluorescein-labelled NRF2(571-584) pSer577 phospho-peptide (peptide)
# peptide: {fluorescein-Ahx}-EDGKPY[pS]PSEYDLQ-OH
# notes: NRF2 (nuclear factor erythroid 2-related factor 2), residues 571-584, in the Neh3 domain; see recheck for residue 582; source: synthetic peptide, bought: China Peptides
# B5: fluorescein-labelled NRF2(402-415) pSer408 phospho-peptide (peptide)
# peptide: {fluorescein-Ahx}-DMVQPL[pS]PSQGQST-OH
# notes: NRF2 (nuclear factor erythroid 2-related factor 2), residues 402-415, linker between the Neh6 and Neh1 domains; source: synthetic peptide, bought: China Peptides
# Columns and labels:
# PIN1-NRF2 interaction [1] = biological target: T1, PIN1-NRF2 interaction (Homo sapiens, UniProt Q13526, M1N); assay: FP competition / ligand displacement assay: competitor titrated to fixed GST-PIN1 and fluorescently labelled NRF2 peptide; assay type: binding
# T1 construct: host or cells: E. coli BL21 (DE3)
# Protocol: Next, a competition binding assay was used to determine if Pintide competed for PIN1 binding with the NRF2 peptides in a concentration dependent manner. Thus, Pintide was titrated to a fixed concentration of GST-PIN1 (1 µM) and fluorescently labelled NRF2 peptide (10 nM).
# Thus, the inhibitors were titrated to a fixed concentration of GST-PIN1 (1 µM) and fluorescently labelled NRF2 peptide (10 nM).
# (§1) Fluorescence polarisation experiments were performed at room temperature in a buffer consisting of 5 mM HEPES pH 7.4, 30 mM NaCl, 0.1% v/v Tween20, and 1% v/v DMSO. Corning black, round-bottom, low-binding 384-well plates were utilized for all assays. The NRF2 mimicking fluorescein-labelled peptides, ETTMVPp[…] (NRF2_209-222^pSer215), DMVQPLp[…] (NRF2_402-415^pSer408), and EDGKPYp[…] (NRF2_571-584^pSer577) and the Pintide peptide (WFYpSPFLE) with the optimal binding for the WW domain were commercially purchased from China Peptides. For protein titration studies, GST-PIN1 was titrated to the fluorescently-labelled Nrf 2 phospho-peptides (10 nM) in the presence of a fixed concentration of PIN1 inhibitor (100 μM) or only DMSO as control group. To show PIN1 specificity, only GST protein was used as the control protein group. Fluorescence polarisation was measured using a CLARIOstar® Microplate Reader with an excitation wavelength of λex: 490/20 nm and an emission wavelength of λem: 535/20 nm. The binding affinities (Kd) were determined by sing GraphPad Prism 7 software, and sigmoidal curves were fitted using the equation: Y = Bottom + (Top − Bottom)/(1 + 10^((Log app.Kd − X) * HillSlope)), where Y represents the mP value, X denotes the log protein concentration, and Top and Bottom represent the plateaus in mP. Moreover, for the ligand displacement assays, the inhibitors were titrated to a fixed concentration of GST-PIN1 (1 μM) and fluorescently labelled NRF2 peptide (10 nM). The change in polarisation values were normalised to the DMSO control group and presented as percentage change.
# PIN1-NRF2 interaction [2] = biological target: T1, PIN1-NRF2 interaction; assay: FP protein titration: GST-PIN1 titrated to fluorescently labelled NRF2 phospho-peptides in the presence of a fixed concentration of Pintide or PIN1 inhibitor; assay type: binding; details: for fold reduction in binding affinity of NRF2_209-222^pSer215 / fold reduction in binding affinity of NRF2_402-415^pSer408 / fold reduction in binding affinity of NRF2_571-584^pSer577: inhibitor 100 µM vs DMSO
# Protocol: First, GST-PIN1 was titrated to the fluorescently labelled Nrf 2 phospho-peptides (10 nM) in the presence of a fixed concentration of Pintide (10 µM).
# In this study, we integrated three different PIN1 inhibitors, including juglone, epigallocatechin gallate (EGCG), and KPT-6566 (Fig. 6a). […] First, GST-PIN1 was titrated to the fluorescently labelled NRF2 phospho-peptides (10 nM) in the presence of a fixed concentration of PIN1 inhibitor (100 µM).
# as §1
# GST-PIN1 [3] = biological target: GST-PIN1 (Homo sapiens, UniProt Q13526, M1N); assay: Fluorescence polarisation (FP) direct binding: GST-PIN1 titrated to fluorescently labelled phospho-peptide; set-up: host or cells: E. coli BL21 (DE3); details: apparent Kd compared with Pintide
# Protocol: as §1, with “Moreover, for the ligand displacement assays, the inhibitors were titrated to a fixed concentration of GST-PIN1 (1 μM) and fluorescently labelled NRF2 peptide (10 nM). The change in polarisation values were normalised to the DMSO control group and presented as percentage change.” left out
# breast cancer cells = test system: breast cancer cells; set-up: method as in PMID 28598431; details: breast cancer cells treated with KPT-6566; cited from earlier work
# PIN1 [4] = biological target: T2, PIN1 (Homo sapiens, UniProt Q13526); assay: Denaturing mass spectrometry of PIN1 incubated with KPT-6566 (covalent modification); details: PIN1 10 µM, KPT-6566 30 µM, 1 h
# Protocol: KPT-6566 was previously shown to covalently modify the PIN1 PPIase domain at Cys113 via an unusual disulfide exchange of the sulfonyl-acetate moiety (KPT-65666-A, Fig. 7a)[31]. […] The remaining fragment of KPT-6566 (KPT-6566-B) was reported to be released into the cytoplasm. To verify this, we incubated PIN1 (10 µM) with KPT-6566 (30 µM) and then analysed the results by denaturing mass spectrometry. […] Of this, there was only a barely detectable trace of covalent PIN1 modification with KPT-6566-A (Supplementary Fig. 6a, b). […] Given these findings, the effects of both modes of covalent PIN1 modification by KPT-6566 on NRF2 phospho-peptide binding were subject to computational simulations.
# From protein stock, PIN1 was diluted into an assay buffer solution of 50 mM HEPES, 300 mM NaCl pH 7.4 to a final concentration 10 μM and incubated with KPT-6566 (30 μM) for 1 h. Then, the sample was 2-times diluted by using H2O containing 0.1% v/v formic acid solution to give a final protein concentration of 0.1–1 mg/mL, and mass spectra were obtained using a Waters Acquity XEVO Q ToF instrument.
# PIN1 [5] = biological target: T2, PIN1; set-up: method as in PMID 28598431; details: disulfide exchange of the sulfonyl-acetate moiety at Cys113; cited from earlier work
# GST-PIN1 [6] = biological target: T3, GST-PIN1 (UniProt Q13526 1-163, methionine (Met 1) mutated to asparagine (Asn 1)); assay: fluorescence polarisation; GST-PIN1 (or GST) titrated to fluorescently labelled peptide (10 nM); room temperature; 5 mM HEPES pH 7.4, 30 mM NaCl, 0.1% v/v Tween20, 1% v/v DMSO; apparent Kd, variable slope dose-response fit; details: both partners purified
# T3 construct: peptidyl-prolyl cis-trans isomerase PIN1 from the GST-PIN1 plasmid (Addgene #19027); also called GST-tagged PIN1 construct; source: E. coli BL21 (DE3), purified (Glutathione spin columns)
# T3 sequence (Q13526 other isoform, or with tags, fused parts or gaps with the stated changes): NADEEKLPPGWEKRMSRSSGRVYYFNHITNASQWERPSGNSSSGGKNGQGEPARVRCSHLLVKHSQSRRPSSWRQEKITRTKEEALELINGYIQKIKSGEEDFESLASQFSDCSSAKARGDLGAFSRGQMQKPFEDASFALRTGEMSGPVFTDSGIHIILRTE
# GST-PIN1 [7] = biological target: T4, GST-PIN1 (UniProt Q13526 1-163, methionine (Met 1) mutated to asparagine (Asn 1)); assay: FP; 100 uM KPT-6566
# T4 sequence (Q13526 other isoform, or with tags, fused parts or gaps methionine (Met 1) mutated to asparagine (Asn 1)): as the sequence (Q13526 other isoform, or with tags, fused parts or gaps with the stated changes) above
# GST-PIN1 [8] = biological target: T4, GST-PIN1; assay: FP; 10 uM Pintide
# GST-PIN1 [9] = biological target: T4, GST-PIN1; assay: FP; 100 uM juglone
# GST-PIN1 [10] = biological target: T3, GST-PIN1; assay: fluorescence polarisation; competition: Pintide titrated to GST-PIN1 (1 uM) and fluorescently labelled NRF2(571-584) pSer577 peptide (10 nM); details: both partners purified
# GST-PIN1 [11] = biological target: T3, GST-PIN1; assay: fluorescence polarisation; competition: Pintide titrated to GST-PIN1 (1 uM) and fluorescently labelled NRF2(402-415) pSer408 peptide (10 nM); details: both partners purified
# GST-PIN1 [12] = biological target: T3, GST-PIN1; assay: fluorescence polarisation; competition: Pintide titrated to GST-PIN1 (1 uM) and fluorescently labelled NRF2(209-222) pSer215 peptide (10 nM); details: both partners purified
# GST-PIN1 [13] = biological target: T4, GST-PIN1; assay: FP; 100 uM EGCG
# [14] = GST-PIN1 1 µM, labelled NRF2_402-415^pSer408 10 nM, read-out: IC50, inhibition of NRF2_402-415^pSer408 binding to PIN1
# [15] = GST-PIN1 1 µM, labelled NRF2_571-584^pSer577 10 nM, read-out: IC50, inhibition of NRF2_571-584^pSer577 binding to PIN1
# T2 sequence (Q13526 whole entry, the tested form may be a part): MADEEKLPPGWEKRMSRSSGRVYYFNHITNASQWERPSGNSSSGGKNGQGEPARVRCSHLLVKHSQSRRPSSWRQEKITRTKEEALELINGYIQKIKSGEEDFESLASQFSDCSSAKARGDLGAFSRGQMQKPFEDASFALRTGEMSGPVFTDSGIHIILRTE
# T1 sequence (Q13526 whole entry M1N): as the sequence (Q13526 other isoform, or with tags, fused parts or gaps with the stated changes) above
# Sequence of GST-PIN1 (Homo sapiens, UniProt Q13526, M1N) (Q13526 whole entry M1N): as the sequence (Q13526 other isoform, or with tags, fused parts or gaps with the stated changes) above
molecule,measurement,setting,value
O=C1C=CC(=O)c2c(O)cccc21 [juglone],IC50,"PIN1-NRF2 interaction [1]; GST-PIN1 1 µM, labelled NRF2_209-222^pSer215 10 nM, read-out: IC50, inhibition of NRF2_209-222^pSer215 binding to PIN1",26800 nM
same,IC50,PIN1-NRF2 interaction [1]; [14],20000 nM
same,IC50,PIN1-NRF2 interaction [1]; [15],30000 nM
same,fold reduction in binding affinity of NRF2_209-222^pSer215,PIN1-NRF2 interaction [2],8 fold
same,fold reduction in binding affinity of NRF2_402-415^pSer408,PIN1-NRF2 interaction [2],18 fold
same,fold reduction in binding affinity of NRF2_571-584^pSer577,PIN1-NRF2 interaction [2],sixfold
"CSCC[C@H](NC(=O)[C@@H](NC(=O)[C@@H](NC(=O)[C@H](CCC(=O)O)NC(=O)CCCCCNC(=S)Nc1ccc2c(c1)C(=O)OC21c2ccc(O)cc2Oc2cc(O)ccc21)[C@@H](C)O)[C@@H](C)O)C(=O)N[C@H](C(=O)N1CCC[C@H]1C(=O)N[C@@H](COP(=O)(O)O)C(=O)N1CCC[C@H]1C(=O)N[C@@H](CCC(=O)O)C(=O)N[C@@H](C)C(=O)N[C@@H](CCCCN)C(=O)N[C@@H](CC(C)C)C(=O)N[C@H](C(=O)N[C@@H](CCC(=O)O)C(=O)O)[C@@H](C)O)C(C)C [NRF2_209-222^pSer215, ETTMVPpSPEAKLTE] ({FITC-Ahx}-ETTMVP[pS]PEAKLTE-OH; N-terminus assumed)",fold weaker interaction with PIN1 than the optimised Pintide ligand,GST-PIN1 [3],tenfold
CC(C)(C)c1ccc(S(=O)(=O)/N=C2\C=C(SCC(=O)O)C(=O)c3ccccc32)cc1 [KPT-6566],NRF2-mediated oxidative stress elements (microarray analysis),breast cancer cells,upregulation
same,"NRF2 downstream enzymes cFOS, HO1, NQO1, TXNRD1, DNAJB9 at the mRNA level (quantitative RT-PCR)",breast cancer cells,upregulation
same,IC50,PIN1-NRF2 interaction [1]; [14],300 nM
same,IC50,PIN1-NRF2 interaction [1]; [15],1400 nM
same,fold more potent than Juglone,"PIN1-NRF2 interaction [1]; IC50 comparison, ligand displacement assay",~ 20 fold
same,IC50,"PIN1-NRF2 interaction [1]; range over the three NRF2 phospho-peptides, read-out: IC50 range, inhibitory effect on PIN1-NRF2 interaction",300 to 1400 nM
same,extent of covalent PIN1 modification,PIN1 [4],only a small amount of covalent PIN1 modification was observed
same,mass increase of the major modified PIN1 species,PIN1 [4],353 Da
same,fold reduction in binding affinity of NRF2_209-222^pSer215,PIN1-NRF2 interaction [2],25 fold
same,fold reduction in binding affinity of NRF2_402-415^pSer408,PIN1-NRF2 interaction [2],92 fold
same,fold reduction in binding affinity of NRF2_571-584^pSer577,PIN1-NRF2 interaction [2],149 fold
same,PIN1 mass increase,PIN1 [5],90 Da
"O=C(O[C@@H]1Cc2c(O)cc(O)cc2O[C@@H]1c1cc(O)c(O)c(O)c1)c1cc(O)c(O)c(O)c1 [EGCG, epigallocatechin gallate]",inhibitory effect on the binding of any NRF2 phospho-peptide to PIN1,"PIN1-NRF2 interaction [2]; inhibitor 100 µM, all three NRF2 phospho-peptides",did not show any inhibitory effect
"CSCC[C@H](NC(=O)[C@H](CC(=O)O)NC(=O)CCCCCNC(=S)Nc1ccc2c(c1)C(=O)OC21c2ccc(O)cc2Oc2cc(O)ccc21)C(=O)N[C@H](C(=O)N[C@@H](CCC(N)=O)C(=O)N1CCC[C@H]1C(=O)N[C@@H](CC(C)C)C(=O)N[C@@H](COP(=O)(O)O)C(=O)N1CCC[C@H]1C(=O)N[C@@H](CO)C(=O)N[C@@H](CCC(N)=O)C(=O)NCC(=O)N[C@@H](CCC(N)=O)C(=O)N[C@@H](CO)C(=O)N[C@H](C(=O)O)[C@@H](C)O)C(C)C [NRF2_402-415^pSer408, DMVQPLpSPSQGQST] ({FITC-Ahx}-DMVQPL[pS]PSQGQST-OH; N-terminus assumed)",fold weaker interaction with PIN1 than the optimised Pintide ligand,GST-PIN1 [3],~ 13 fold
B1,Kd,GST-PIN1 [6],17 ± 3 nM
B2,Kd,GST-PIN1 [7],4040 nM
same,Kd,GST-PIN1 [8],1070 nM
same,Kd,GST-PIN1 [6],157 ± 15 nM
same,Kd,GST-PIN1 [9],1300 nM
B3,IC50,GST-PIN1 [10],6700 nM
same,IC50,GST-PIN1 [11],6800 nM
same,IC50,GST-PIN1 [12],5700 nM
B4,Kd,GST-PIN1 [7],25300 nM
same,Kd,GST-PIN1 [13],200 nM
same,Kd,GST-PIN1 [8],1760 nM
same,Kd,GST-PIN1 [6],168 ± 25 nM
same,Kd,GST-PIN1 [9],1000 nM
B5,Kd,GST-PIN1 [7],20200 nM
same,Kd,GST-PIN1 [8],1590 nM
same,Kd,GST-PIN1 [6],221 ± 40 nM
same,Kd,GST-PIN1 [9],3900 nM
